Assay results reported in US12606541B2, “PPARg modulators and methods of use” (Eisai R&D Management Co., Ltd., priority 2020, dated 2026).
Where two headings read alike, the source gives them in different places.

Target: T1, His6-TEV-PPARγ-(234-505) (Homo sapiens, UniProt P37231)
T1 construct: The His6-TEV-PPARγ-(234-505) protein for assay was expressed and purified; TEV cleavage site (N); made in house
T1 sequence (P37231 234-505): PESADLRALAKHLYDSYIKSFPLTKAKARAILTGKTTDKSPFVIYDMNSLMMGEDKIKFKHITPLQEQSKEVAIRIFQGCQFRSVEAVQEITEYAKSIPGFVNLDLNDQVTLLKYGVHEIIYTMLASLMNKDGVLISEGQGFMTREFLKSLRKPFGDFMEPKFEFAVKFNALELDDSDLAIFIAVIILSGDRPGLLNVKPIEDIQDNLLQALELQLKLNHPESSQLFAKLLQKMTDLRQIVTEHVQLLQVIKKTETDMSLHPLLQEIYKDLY
Test: TR-FRET Assay to Measure Co-R Peptide Recruitment to PPARγ
Type: biochemical
Protocol: TR-FRET Assay to Measure Co—R Peptide Recruitment to PPARγ
The 2× detection solution contained anti-6×His-Terbium antibody (CisBio) and FITC labeled Co—R peptide (SMRT-ID2 from New England Peptide) at final concentrations of 5 and 200 nM respectively.
In these assay plates, the positive control in column 24 contained 500 nM (final) T0070907 and the negative control in column 23 contained an identical volume of DMSO. Then, 5 μL of 2+ protein working stock or controls were added to the plate and incubated for 20 minutes at room temperature. Reagents additions were performed with either a Combi (Thermo) or Mantis (Formulatory) pipetting device. The incubation was followed by addition of 5 μL of the 2× detection solution. Plates were covered, centrifuged, and incubated for an additional hour. The TR-FRET data was recorded with an Envision plate reader (Perkin Elmer), using settings recommended by Thermo Fisher. The TR-FRET signal of the positive and negative control's recruitment of FITC-Co—R peptide was used to normalize the TR-FRET signal to percent response and to determine the assay Z prime. Experiments were performed in triplicate and analyzed in GraphPad Prism 7.

[1] = Co-R peptide recruitment to PPARγ, read-out: TR-FRET AC50

Compound	AC50 [1] [µM]	AC50 (TR-FRET AC50, Co-R peptide recruitment to PPARγ) [µM]
COc1cc(-c2cc(C(=O)N3CCC(C)(C(=O)NC4CCC(C)CC4)CC3)n[nH]2)ccn1 (stereo not drawn) [1-[5-(2-methoxypyridin-4-yl)-1H-pyrazole-3-carbonyl]-4-methyl-N-(4-methylcyclohexyl)piperidine-4-carboxamide]	> 1	–
COc1cc(-c2cc(C(=O)N3CCC(C(=O)NC(C)(C)c4ccccc4)CC3)n[nH]2)ccn1 [1-[5-(2-methoxypyridin-4-yl)-1H-pyrazole-3-carbonyl]-N-(2-phenylpropan-2-yl)piperidine-4-carboxamide]	–	> 1
COc1cc(-c2cc(C(=O)N3CCC(C(=O)NC4CCC(=O)CC4)CC3)n[nH]2)ccn1 [1-[5-(2-methoxypyridin-4-yl)-1H-pyrazole-3-carbonyl]-N-(4-oxocyclohexyl)piperidine-4-carboxamide]	> 1	–
CC1CCC(NC(=O)C2CCN(C(=O)c3cc(-c4ccncc4C#N)[nH]n3)CC2)CC1 (stereo not drawn) [1-[5-(3-cyanopyridin-4-yl)-1H-pyrazole-3-carbonyl]-N-(4-methylcyclohexyl)piperidine-4-carboxamide]	> 1	–
CC1CCC(NC(=O)C2CCN(C(=O)c3cc(-c4ccncc4F)[nH]n3)CC2)CC1 (stereo not drawn) [1-[5-(3-fluoropyridin-4-yl)-1H-pyrazole-3-carbonyl]-N-(4-methylcyclohexyl)piperidine-4-carboxamide]	> 1	–
COc1cc(-c2cc(C(=O)N3CCC(C(=O)NC4CCS(=O)(=O)c5ccccc54)CC3)n[nH]2)c(Cl)cn1 (stereo not drawn) [1-[5-(5-chloro-2-methoxypyridin-4-yl)-1H-pyrazole-3-carbonyl]-N-(1,1-dioxo-3,4-dihydro-2H-1λ^6-benzothiopyran-4-yl)piperidine-4-carboxamide]	> 1	–
COc1cc(-c2cc(C(=O)N3CCC(C(=O)NC4COCOC4)CC3)n[nH]2)c(Cl)cn1 [1-[5-(5-chloro-2-methoxypyridin-4-yl)-1H-pyrazole-3-carbonyl]-N-(1,3-dioxan-5-yl)piperidine-4-carboxamide]	> 1	–
COc1cc(-c2cc(C(=O)N3CCC(C(=O)Nc4nc(C)cn4C)CC3)n[nH]2)c(Cl)cn1 [1-[5-(5-chloro-2-methoxypyridin-4-yl)-1H-pyrazole-3-carbonyl]-N-(1,4-dimethyl-1H-imidazol-2-yl)piperidine-4-carboxamide]	> 1	–
COc1cc(-c2cc(C(=O)N3CCC(C(=O)NC4CCN(C5CCC5)CC4)CC3)n[nH]2)c(Cl)cn1 [1-[5-(5-chloro-2-methoxypyridin-4-yl)-1H-pyrazole-3-carbonyl]-N-(1-cyclobutylpiperidin-4-yl)piperidine-4-carboxamide]	> 1	–
COc1cc(-c2cc(C(=O)N3CCC(C(=O)Nc4nc5ccccc5n4C)CC3)n[nH]2)c(Cl)cn1 [1-[5-(5-chloro-2-methoxypyridin-4-yl)-1H-pyrazole-3-carbonyl]-N-(1-methyl-1H-1,3-benzodiazol-2-yl)piperidine-4-carboxamide]	> 1	–
COc1cc(-c2cc(C(=O)N3CCC(C(=O)NC4COC(C)(C)OC4)CC3)n[nH]2)c(Cl)cn1 [1-[5-(5-chloro-2-methoxypyridin-4-yl)-1H-pyrazole-3-carbonyl]-N-(2,2-dimethyl-1,3-dioxan-5-yl)piperidine-4-carboxamide]	> 1	–
COc1cc(-c2cc(C(=O)N3CCC(C(=O)NC4CS(=O)(=O)Cc5ccccc54)CC3)n[nH]2)c(Cl)cn1 (stereo not drawn) [1-[5-(5-chloro-2-methoxypyridin-4-yl)-1H-pyrazole-3-carbonyl]-N-(2,2-dioxo-3,4-dihydro-1H-2λ^6-benzothiopyran-4-yl)piperidine-4-carboxamide]	> 1	–
COc1cc(-c2cc(C(=O)N3CCC(C(=O)Nc4cccc(F)c4F)CC3)n[nH]2)c(Cl)cn1 [1-[5-(5-chloro-2-methoxypyridin-4-yl)-1H-pyrazole-3-carbonyl]-N-(2,3-difluorophenyl)piperidine-4-carboxamide]	> 1	–
COc1cc(F)c(NC(=O)C2CCN(C(=O)c3cc(-c4cc(OC)ncc4Cl)[nH]n3)CC2)c(F)c1 [1-[5-(5-chloro-2-methoxypyridin-4-yl)-1H-pyrazole-3-carbonyl]-N-(2,6-difluoro-4-methoxyphenyl)piperidine-4-carboxamide]	> 1	–
COc1cc(-c2cc(C(=O)N3CCC(C(=O)NC4c5ccccc5CC4O)CC3)n[nH]2)c(Cl)cn1 (stereo not drawn) [1-[5-(5-chloro-2-methoxypyridin-4-yl)-1H-pyrazole-3-carbonyl]-N-(2-hydroxy-2,3-dihydro-1H-inden-1-yl)piperidine-4-carboxamide]	> 1	–
COc1cc(-c2cc(C(=O)N3CCC(C(=O)NC4CCCc5[nH]c(=O)ccc54)CC3)n[nH]2)c(Cl)cn1 (stereo not drawn) [1-[5-(5-chloro-2-methoxypyridin-4-yl)-1H-pyrazole-3-carbonyl]-N-(2-oxo-1,2,5,6,7,8-hexahydroquinolin-5-yl)piperidine-4-carboxamide]	> 1	–
COc1cc(-c2cc(C(=O)N3CCC(C(=O)NC(C)(C)c4ccccc4)CC3)n[nH]2)c(Cl)cn1 [1-[5-(5-chloro-2-methoxypyridin-4-yl)-1H-pyrazole-3-carbonyl]-N-(2-phenylpropan-2-yl)piperidine-4-carboxamide]	> 1	–
COc1cc(-c2cc(C(=O)N3CCC(C(=O)NC4(C)CC(F)(F)C4)CC3)n[nH]2)c(Cl)cn1 [1-[5-(5-chloro-2-methoxypyridin-4-yl)-1H-pyrazole-3-carbonyl]-N-(3,3-difluoro-1-methylcyclobutyl)piperidine-4-carboxamide]	> 1	–
COc1cc(-c2cc(C(=O)N3CCC(C(=O)NC4CC(F)(F)C4)CC3)n[nH]2)c(Cl)cn1 [1-[5-(5-chloro-2-methoxypyridin-4-yl)-1H-pyrazole-3-carbonyl]-N-(3,3-difluorocyclobutyl)piperidine-4-carboxamide]	> 1	–
COc1cc(-c2cc(C(=O)N3CCC(C(=O)Nc4nc(C)cnc4C)CC3)n[nH]2)c(Cl)cn1 [1-[5-(5-chloro-2-methoxypyridin-4-yl)-1H-pyrazole-3-carbonyl]-N-(3,6-dimethylpyrazin-2-yl)piperidine-4-carboxamide]	> 1	–
COc1cc(-c2cc(C(=O)N3CCC(C(=O)NC4CCC(O)C4)CC3)n[nH]2)c(Cl)cn1 (stereo not drawn) [1-[5-(5-chloro-2-methoxypyridin-4-yl)-1H-pyrazole-3-carbonyl]-N-(3-hydroxycyclopentyl)piperidine-4-carboxamide]	> 1	–
COc1cc(-c2cc(C(=O)N3CCC(C(=O)Nc4nccnc4O)CC3)n[nH]2)c(Cl)cn1 [1-[5-(5-chloro-2-methoxypyridin-4-yl)-1H-pyrazole-3-carbonyl]-N-(3-hydroxypyrazin-2-yl)piperidine-4-carboxamide]	> 1	–
COc1cc(-c2cc(C(=O)N3CCC(C(=O)NC4CCC(C#N)CC4)CC3)n[nH]2)c(Cl)cn1 (stereo not drawn) [1-[5-(5-chloro-2-methoxypyridin-4-yl)-1H-pyrazole-3-carbonyl]-N-(4-cyanocyclohexyl)piperidine-4-carboxamide]	> 1	–
CCC1(O)CCC(NC(=O)C2CCN(C(=O)c3cc(-c4cc(OC)ncc4Cl)[nH]n3)CC2)CC1 (stereo not drawn) [1-[5-(5-chloro-2-methoxypyridin-4-yl)-1H-pyrazole-3-carbonyl]-N-(4-ethyl-4-hydroxycyclohexyl)piperidine-4-carboxamide]	> 1	–
COc1cc(-c2cc(C(=O)N3CCC(C(=O)Nc4noc5cccc(F)c45)CC3)n[nH]2)c(Cl)cn1 [1-[5-(5-chloro-2-methoxypyridin-4-yl)-1H-pyrazole-3-carbonyl]-N-(4-fluoro-1,2-benzoxazol-3-yl)piperidine-4-carboxamide]	> 1	–
COc1cc(-c2cc(C(=O)N3CCC(C(=O)NC4CCC(C)(OC)CC4)CC3)n[nH]2)c(Cl)cn1 (stereo not drawn) [1-[5-(5-chloro-2-methoxypyridin-4-yl)-1H-pyrazole-3-carbonyl]-N-(4-methoxy-4-methylcyclohexyl)piperidine-4-carboxamide]	> 1	–
COc1cc(-c2cc(C(=O)N3CCC(C(=O)NC4(C)CCOCC4)CC3)n[nH]2)c(Cl)cn1 [1-[5-(5-chloro-2-methoxypyridin-4-yl)-1H-pyrazole-3-carbonyl]-N-(4-methyloxan-4-yl)piperidine-4-carboxamide]	> 1	–
COc1cc(-c2cc(C(=O)N3CCC(C(=O)Nc4cnncc4Cl)CC3)n[nH]2)c(Cl)cn1 [1-[5-(5-chloro-2-methoxypyridin-4-yl)-1H-pyrazole-3-carbonyl]-N-(5-chloropyridazin-4-yl)piperidine-4-carboxamide]	> 1	–
COc1cc(-c2cc(C(=O)N3CCC(C(=O)Nc4cnc(C)cn4)CC3)n[nH]2)c(Cl)cn1 [1-[5-(5-chloro-2-methoxypyridin-4-yl)-1H-pyrazole-3-carbonyl]-N-(5-methylpyrazin-2-yl)piperidine-4-carboxamide]	> 1	–
COc1cc(-c2cc(C(=O)N3CCC(C(=O)NC4CNC(=O)C4)CC3)n[nH]2)c(Cl)cn1 (stereo not drawn) [1-[5-(5-chloro-2-methoxypyridin-4-yl)-1H-pyrazole-3-carbonyl]-N-(5-oxopyrrolidin-3-yl)piperidine-4-carboxamide]	> 1	–
